Values quoted from earlier work in article PMC11243490, “Enzymatic Fructosylation of Phenolic Compounds: A New Alternative for the Development of Antidiabetic Drugs” (Molecules, 2024).
Values after ≈ are worked out from the molar mass of the structure shown.

How the values were obtained:
[1] = test system: key proteins in type 2 diabetes; parameters: method as in PMID 32258479; settings: strongest interactions
[2] = reported properties
[3] = parameters: method as in PMID 30638505, PMID 33992405, doi:10.1016/j.imu.2022.100880; settings: reported properties
[4] = parameters: method as in PMID 30638505, PMID 33992405, doi:10.1016/j.imu.2022.100880; settings: reported properties; remark: listed apart in the source
[5] = parameters: method as in PMID 30638505, PMID 33992405, doi:10.1016/j.imu.2022.100880; settings: reported properties; remark: listed apart in the source
[6] = test system: EGFR, SRC, ESR1, and HSP90AA1 diabetic proteins; parameters: method as in PMID 37754241; settings: range over EGFR
[7] = test system: CYP1A2; parameters: method as in PMID 27518169; settings: human liver microsomes
[8] = test system: CYP2C9; parameters: method as in PMID 27518169; settings: human liver microsomes

| SMILES | DPPH % Free Radical Scavenging Activity [2] | Solubility [3] | also measured |
| --- | --- | --- | --- |
| OC[C@H]1O[C@@H](Oc2cc3c(O)cc(O)cc3[o+]c2-c2ccc(O)c(O)c2)[C@H](O)[C@@H](O)[C@@H]1O [cyanidin 3-glucoside] | – | – | free binding energies [1]: −7.3 to −6.10 |
| O=C(CCc1ccc(O)cc1)c1c(O)cc(O)cc1OC1OC(COC2(CO)OC(CO)C(O)C2O)C(O)C(O)C1O [MFPh, β-D-fructofuranosyl-β-(2→6)-phlorizin] | 44.56 ± 8.4% | 30570 ± 100 µg/mL (≈ 51.1 mM) | – |
| OC[C@H]1O[C@@H](Oc2cc3c(O)cc(O)cc3[o+]c2-c2cc(O)c(O)c(O)c2)[C@H](O)[C@@H](O)[C@@H]1O [delphinidin 3-glucoside] | – | – | free binding energies [1]: −7.3 to −6.10 |
| COc1cc(/C=C/C(=O)OC2(CO)OCC(O)C(O)C2O)ccc1O [MFF, β-D-Fructopyranosyl-β-(2→6)-ferulate] | 17.16 ± 0.81% | 8690 ± 450 µg/mL (≈ 24.4 mM) | ABTS % Free Radical Scavenging Activity [4]: 90.95 ± 0.18%; NO % Free Radical Scavenging Activity [5]: 3.27 ± 1.02% |
| CCCCCc1cc(O)c2c(c1)OC(C)(C)c1ccc(C)cc1-2 [cannabinol] | – | – | free binding energy [6]: -7.44 to -6.38 kcal/mol |
| O=c1c(-c2ccc(O)cc2)coc2c(C3OC(COC4(CO)OC(CO)C(O)C4O)C(O)C(O)C3O)c(O)ccc12 [MFP, β-D-fructofuranosyl-β-(2→6)-puerarin] | 26.2 ± 1.3% | 16200 ± 1700 µg/mL (≈ 28 mM) | – |
| O=c1c(-c2ccc(O)cc2)coc2c([C@@H]3O[C@H](CO)[C@@H](O)[C@H](O)[C@H]3O)c(O)ccc12 [PU, daidzein-8-C-glucoside] | 33.3% | 700 ± 90 µg/mL (≈ 1.68 mM) | – |
| O=C(O[C@@H]1Cc2c(O)cc(O)cc2O[C@@H]1c1cc(O)c(O)c(O)c1)c1cc(O)c(O)c(O)c1 [EGCG, epigallocatechin gallate] | – | – | inhibition of CYP1A2 [7]: 8.93 µM; inhibition of CYP2C9 [8]: 7.60 µM |
| COc1cc(C=CC(=O)O)ccc1O [FA, 4-hydroxy-3-methoxycinnamic acid] | 70.04 ± 2.3% | – | ABTS % Free Radical Scavenging Activity [4]: 90.69 ± 0.14%; NO % Free Radical Scavenging Activity [5]: 22.21 ± 1.39% |
| O=C(CCc1ccc(O)cc1)c1c(O)cc(O)cc1O[C@@H]1O[C@H](CO)[C@@H](O)[C@H](O)[C@H]1O [PH, phloretin-2′-β-D-glucopyranoside] | 62.13 ± 1.8% | 1930 ± 30 µg/mL (≈ 4.42 mM) | – |
